Data taken from the supplement of paper PMC10331698.
± gives the standard deviation of the averaged measurements.

Assays:
Assay in all cases: level (log10 ratio to DMSO vehicle control); higher = higher biomarker level / cell amount than vehicle control
[1] = compound: OCC(F)(F)OC(F)(F)C(F)(F)OC(F)(F)C(F)(F)OC(F)(F)CO [1H,1H,11H,11H-Perfluorotetraethylene glycol] (in DMSO)
Procedure: (§1)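 BioMAP Diversity Plus panel of 12 human primary cell co-culture systems (3C, 4H, LPS, SAg, BT, BF4T, BE3C, CASM3C, HDF3CGF, KF3CT, MyoF, Mphg). Compounds were added 1 h before stimulation and left for 24 h (MyoF 48 h; BT 72 h for soluble read-outs or 6 d for IgG). Biomarkers were read by ELISA, cytotoxicity by SRB, PBMC viability and proliferation by Alamar Blue. Each well value was divided by the mean of 8 DMSO control wells on the same plate and log10 transformed; duplicate blinded samples were tested at 4 concentrations.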

Perfluoroundecanoic acid = compound: O=C(O)C(F)(F)C(F)(F)C(F)(F)C(F)(F)C(F)(F)C(F)(F)C(F)(F)C(F)(F)C(F)(F)C(F)(F)F [Perfluoroundecanoic acid] (in DMSO); settings: 6700 nM
Procedure: as §1

[2] = compound: CN(C(=O)C(F)(F)C(F)(F)C(F)(F)F)[Si](C)(C)C [N-Methyl-N-trimethylsilylheptafluorobutyramide] (in DMSO)
Procedure: as §1

[3] = compound: OCCC(F)(F)C(F)(F)C(F)(F)C(F)(F)F [4:2 Fluorotelomer alcohol] (in DMSO)
Procedure: as §1

Octafluoroadipic acid = compound: O=C(O)C(F)(F)C(F)(F)C(F)(F)C(F)(F)C(=O)O [Octafluoroadipic acid] (in DMSO)
Procedure: as §1

Perfluorononanoic acid = compound: O=C(O)C(F)(F)C(F)(F)C(F)(F)C(F)(F)C(F)(F)C(F)(F)C(F)(F)C(F)(F)F [Perfluorononanoic acid] (in DMSO)
Procedure: as §1

[4] = compound: CO[Si](C)(CCC(F)(F)C(F)(F)C(F)(F)C(F)(F)C(F)(F)C(F)(F)F)OC [Dimethoxymethyl((perfluorohexyl)ethyl)silane] (in DMSO)
Procedure: as §1

[5] = compound: O=C(O)C(F)(OC(F)(F)C(F)(F)C(F)(F)F)C(F)(F)F [Ammonium perfluoro-2-methyl-3-oxahexanoate] (in Water)
Procedure: as §1

| Test System | level (log10) ([1]; 6700 nM) | level (log10) ([1]; 20000 nM) | level (log10) ([1]; 60000 nM) | level (log10) (Perfluoroundecanoic acid) | level (log10) ([2]; 6700 nM) | level (log10) ([2]; 20000 nM) | level (log10) ([2]; 60000 nM) | level (log10) ([3]; 6700 nM) | level (log10) ([3]; 20000 nM) | level (log10) ([3]; 60000 nM) | level (log10) (Octafluoroadipic acid; 6700 nM) | level (log10) (Octafluoroadipic acid; 20000 nM) | level (log10) (Octafluoroadipic acid; 60000 nM) | level (log10) (Perfluorononanoic acid; 6700 nM) | level (log10) (Perfluorononanoic acid; 20000 nM) | level (log10) ([4]; 6700 nM) | level (log10) ([4]; 20000 nM) | level (log10) ([5]; 6700 nM) | level (log10) ([5]; 20000 nM) | level (log10) ([5]; 60000 nM) |
| --- | --- | --- | --- | --- | --- | --- | --- | --- | --- | --- | --- | --- | --- | --- | --- | --- | --- | --- | --- | --- |
| lMphg:CCL3/MIP-1alpha | -0.051 ± 0.051 | -0.0435 ± 0.026 | 0.015 ± 0.055 | -0.004 ± 0.023 | -0.007 ± 0.0057 | -0.018 ± 0.011 | 0.0255 ± 0.032 | -0.009 ± 0.0042 | -0.011 ± 0.014 | 0.0005 ± 0.019 | -0.035 ± 0.024 | -0.0045 ± 0.023 | 0.002 ± 0.018 | 0.004 ± 0.0028 | 0.0175 ± 0.0021 | -0.012 ± 0.0099 | 0.0065 ± 0.023 | -0.0685 ± 0.035 | -0.067 ± 0.0014 | -0.0185 ± 0.054 |
| lMphg:CD40 | -0.0235 ± 0.019 | -0.0385 ± 0.013 | -0.0755 ± 0.03 | -0.008 ± 0.018 | -0.008 ± 0.027 | -0.016 | -0.0145 ± 0.022 | 0.0015 ± 0.013 | 0.016 ± 0.0085 | 0.0025 ± 0.015 | -0.0065 ± 0.0021 | -0.0015 ± 0.0021 | -0.025 ± 0.048 | 0.002 ± 0.013 | -0.03 ± 0.03 | -0.006 ± 0.0014 | -0.012 ± 0.013 | -0.0295 ± 0.0064 | -0.045 ± 0.0099 | -0.049 ± 0.011 |
| lMphg:CD62E/E-Selectin | -0.056 ± 0.037 | -0.0635 ± 0.081 | -0.072 ± 0.086 | -0.004 ± 0.041 | -0.0115 ± 0.00071 | 0.0015 ± 0.0021 | 0.0065 ± 0.0021 | -0.0075 ± 0.022 | -0.003 ± 0.013 | 0.0185 ± 0.0021 | -0.0025 ± 0.036 | -0.0275 ± 0.057 | -0.028 ± 0.064 | 0.0125 ± 0.035 | 0.0365 ± 0.00071 | 0.019 ± 0.0099 | 0.0135 ± 0.033 | 0.013 ± 0.0071 | 0.002 ± 0.0071 | 0.0245 ± 0.013 |
| lMphg:CD69 | -0.0285 ± 0.023 | -0.0155 ± 0.016 | 0.0065 ± 0.06 | -0.048 ± 0.083 | 0.0015 ± 0.005 | -0.0075 ± 0.035 | -0.039 ± 0.045 | 0.0115 ± 0.07 | 0.007 ± 0.041 | 0.0155 ± 0.0035 | 0.0095 ± 0.037 | 0.0035 ± 0.081 | -0.008 ± 0.054 | -0.0165 ± 0.069 | 0.0125 ± 0.032 | -0.0205 ± 0.018 | -0.0435 ± 0.037 | -0.0435 ± 0.011 | 0 ± 0.013 | -0.0185 ± 0.015 |
| lMphg:CD106/VCAM-1 | -0.015 ± 0.024 | 0.009 ± 0.05 | 0 ± 0.04 | -0.004 ± 0.0057 | -0.025 ± 0.0028 | -0.0055 ± 0.025 | -0.028 ± 0.042 | -0.0025 ± 0.016 | 0.0005 ± 0.011 | 0.0005 ± 0.025 | -0.007 ± 0.02 | 0.0065 ± 0.011 | 0.0055 ± 0.005 | 0.001 ± 0.04 | -0.005 ± 0.02 | 0.009 ± 0.021 | -0.009 ± 0.028 | -0.0195 ± 0.0035 | -0.013 ± 0.0028 | -0.0085 ± 0.0035 |
| lMphg:CXCL8/IL-8 | -0.022 ± 0.017 | -0.034 ± 0.017 | -0.0265 ± 0.032 | 0.01 ± 0.013 | -0.0215 ± 0.0078 | 0.009 ± 0.027 | 0.0155 ± 0.025 | 0.003 | 0.0065 ± 0.033 | 0.0275 ± 0.035 | 0.009 ± 0.0099 | -0.0015 ± 0.028 | 0.0495 ± 0.091 | 0.093 ± 0.03 | 0.186 ± 0.06 | -0.0095 ± 0.029 | 0.0025 ± 0.015 | 0.137 ± 0.0021 | 0.194 ± 0.0078 | 0.261 ± 0.025 |
| lMphg:IL-1alpha | 0.012 ± 0.0057 | 0.0065 ± 0.04 | 0.0605 ± 0.053 | 0.022 ± 0.045 | -0.038 ± 0.0014 | -0.034 ± 0.0071 | 0.017 ± 0.052 | -0.0295 ± 0.013 | -0.0105 ± 0.005 | 0.0075 ± 0.028 | -0.0495 ± 0.013 | -0.041 ± 0.027 | 0.039 ± 0.031 | -0.017 ± 0.017 | 0.0495 ± 0.0035 | -0.032 ± 0.0014 | 0.0125 ± 0.073 | 0.0825 ± 0.059 | 0.079 ± 0.055 | 0.11 ± 0.021 |
| lMphg:M-CSF | -0.0215 ± 0.0021 | -0.0385 ± 0.0078 | -0.0575 ± 0.044 | 0.016 ± 0.02 | -0.033 ± 0.014 | -0.018 ± 0.025 | -0.0045 ± 0.0064 | -0.021 ± 0.017 | -0.003 ± 0.018 | -0.0025 ± 0.039 | -0.012 ± 0.0071 | -0.0255 ± 0.0035 | -0.006 ± 0.017 | -0.0215 ± 0.0064 | -0.006 ± 0.031 | -0.0075 ± 0.036 | 0.0135 ± 0.025 | -0.084 ± 0.021 | -0.0725 ± 0.00071 | -0.0815 ± 0.011 |
| lMphg:SRB | -0.009 ± 0.011 | -0.024 ± 0.0042 | -0.047 ± 0.0099 | -0.001 ± 0.011 | -0.0015 ± 0.005 | 0 ± 0.0099 | 0.003 ± 0.0014 | 0.001 ± 0.0099 | 0.0015 ± 0.0035 | 0.004 ± 0.0071 | -0.023 ± 0.017 | -0.0045 ± 0.00071 | 0.001 ± 0.023 | 0.008 ± 0.0042 | 0.0105 ± 0.021 | -0.0025 ± 0.0092 | -0.0045 ± 0.00071 | -0.043 ± 0.0014 | -0.0435 ± 0.00071 | -0.0395 ± 0.0035 |
| lMphg:SRB-Mphg | 0 ± 0.0042 | -0.011 ± 0.0028 | -0.077 ± 0.0028 | -0.019 ± 0.016 | 0.0035 ± 0.00071 | 0.002 ± 0.031 | 0.015 ± 0.02 | -0.007 ± 0.03 | -0.004 ± 0.018 | 0.016 ± 0.017 | -0.026 ± 0.016 | 0.0135 ± 0.022 | 0.0265 ± 0.029 | -0.0205 ± 0.035 | -0.062 ± 0.081 | 0.0195 ± 0.0021 | 0.0295 ± 0.0021 | -0.0535 ± 0.036 | -0.046 ± 0.041 | -0.054 ± 0.041 |
| lMphg:sIL-10 | -0.0385 ± 0.056 | -0.0965 ± 0.066 | -0.306 ± 0.025 | 0.0325 ± 0.016 | -0.006 ± 0.061 | -0.135 ± 0.1 | -0.0905 ± 0.043 | -0.0195 ± 0.0078 | -0.0385 ± 0.022 | -0.025 ± 0.0099 | -0.067 ± 0.014 | -0.0425 ± 0.077 | -0.0425 ± 0.046 | -0.0035 ± 0.026 | -0.093 ± 0.044 | -0.0465 ± 0.013 | -0.085 ± 0.014 | -0.36 ± 0.035 | -0.328 ± 0.018 | -0.467 ± 0.13 |
